Consider four compounds from patent US10010614B2, “Derivatives of GLP-1 like peptides, and uses thereof” (Novo Nordisk A/S, priority 2013, dated 2018).

Each structure is given as a SMILES string. pEC50, pIC50: −log10 of the molar value. Read-outs that look alike come from different tables or passages of the source. Numbered stars: 1 amine (or outer) side, 2 acyl side, 3 side chain; on linkers, the order of the positions; unused ones are H or OH. Square brackets hold non-standard residues; d marks the D form. Side chains are listed from the residue outwards. Peptide text beside a SMILES is read from it. * marks the point of attachment. C22 diacid = O=C(O)CCCCCCCCCCCCCCCCCCCCC(=O)*; C20 diacid = O=C(O)CCCCCCCCCCCCCCCCCCC(=O)*; γGlu = O=C(O)[C@H](CCC(=O)[*:2])N[*:1]; εLys = N[C@@H](CCCCN[*:1])C(=O)[*:2]; Trx = NC[C@H]1CC[C@H](C(=O)O)CC1; AEEA = NCCOCCOCC(=O)O; Aib = CC(C)(N)C(=O)O

Series [1] can be described thus: Pharmacokinetic study in minipigs (i.v.). It counts as in vivo. Conditions: male, Göttingen, minipig, plasma, iv; read-out: Terminal half-live (converted). The procedure:
The purpose of this study is to determine the protraction in vivo of the GLP-1 derivatives after i.v. administration to minipigs, i.e. the prolongation of their time in the body and thereby their time of action. This is done in a pharmacokinetic (PK) study, where the terminal half-life of the derivative in question is determined. By terminal half-life is meant the time it takes to halve a certain plasma concentration in the terminal elimination phase.
The derivatives of Examples 1-5 were dosed with 2 nmol/kg, the derivative of Example 6 was dosed with 5 nmol/kg, and the derivatives of Examples 7-9 were dosed with 15 nmol/kg.
Male Göttingen minipigs were obtained from Ellegaard Göttingen Minipigs (Dalmose, Denmark) approximately 7-14 months of age and weighing approximately 16-35 kg were used in the studies. The minipigs were housed either individually (pigs with permanent catheters) or in a group and fed restrictedly once or twice daily with SDS minipig diet (Special Diets Services, Essex, UK).
After at least 2 weeks of acclimatisation two permanent central venous catheters were implanted in vena cava caudalis or cranialis in each animal. The animals were allowed 1 week recovery after the surgery, and were then used for repeated pharmacokinetic studies with a suitable wash-out period between successive GLP-1 derivative dosings.
The GLP-1 derivatives were dissolved in 50 mM sodium phosphate, 70-145 mM sodium chloride, 0.05% tween 80, pH 7.4 to a concentration of usually from 20-60 nmol/ml.
Intravenous injections (the volume corresponding to for example 0.050-0.125 ml/kg) of the compounds were given through one catheter or through the venflon, and blood was sampled at predefined time points for up till 25 days post dosing (preferably through the other catheter or by venipuncture). Blood samples (for example 0.8 ml) were collected in EDTA buffer (8 mM) and then centrifuged at 4° C. and 1942G for 10 minutes.
Plasma was pipetted into Micronic tubes on dry ice, and kept at −20° C. until analysed for plasma concentration of the respective GLP-1 compound using LOCI. Individual plasma concentration-time profiles were analyzed by a non-compartmental pharmacokinetic method in Phoenix v. 6.2 (Pharsight Inc., Mountain View, Calif., USA), or other relevant software for PK analysis, and the resulting terminal half-lives (harmonic mean) determined.

Series [2] addresses T1, human GLP-1 receptor (Homo sapiens, UniProt P43220).
T1 construct: expressed in transfected cells; host or cells: membranes prepared from BHK cells (parent line BHKTS13), clone FCW467-12A
Put plainly: In vitro potency, CRE luciferase reporter gene assay in BHK cells expressing the human GLP-1 receptor. It counts as cell-based. Conditions: whole cell reporter gene assay, 3 h incubation, no HSA, averages of at least two replicates. In short, it runs like this:
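Stably transfected BHK cells (5×10^3/well) expressing human GLP-1R with a CRE-luciferase reporter; compounds diluted in buffer with 2% ovalbumin and 0.2% Pluronic F-68, final 1×10^−7 to 1×10^−14 M. Incubated 3 h at 37 °C, 5% CO2, then luminescence read; potency from non-linear log(agonist)–response fit, mean of ≥2 replicates.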

Series [3] has as its target T1, human GLP-1 receptor. Description: GLP-1 receptor binding, competitive binding assay (125I-GLP-1, SPA) on isolated membranes.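 Further: test compounds added at a range of concentrations to membranes from cells expressing the human GLP-1 receptor, scored by displacement of labelled ligand, read with WGA SPA beads.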
Method: The purpose of this example is to test the receptor binding of the GLP-1 derivatives in vitro. The receptor binding is a measure of affinity of a derivative for the human GLP-1 receptor.
In this type of assay a labelled ligand (in this case ^125I-GLP-1) is bound to the receptor. Each derivative is added in a series of concentrations to isolated membranes containing the human GLP-1 receptor and displacement of the labelled ligand is monitored. The receptor binding is reported as the concentration at which half of the labelled ligand is displaced from the receptor, the IC50 value.
The following chemicals were used in the assay: Human serum albumin (HSA) (Sigma A1653), DMEM w/o phenol red (Gibco 11880-028), Pen/strep (Invitrogen 15140-122), G418 (Invitrogen 10131-027), 1 M Hepes (Gibco 15630), EDTA (Invitrogen 15575-038), PBS (Invitrogen 14190-094), fetal calf serum (Invitrogen 16140-071), EGTA, MgCl2 (Merck 1.05832.1000), Tween 20 (Amresco 0850C335), SPA particles (wheat germ agglutinin (WGA) SPA beads, Perkin Elmer RPNQ0001), [^125I]-GLP-1]-(7-36)NH2 (produced in-house), OptiPlate™-96 (Packard 6005290).
Buffer 1 consisted of 20 mM Na-HEPES plus 10 mM EDTA and pH was adjusted to 7.4. Buffer 2 consisted of 20 mM Na-HEPES plus 0.1 mM EDTA and pH was adjusted to 7.4. Assay buffer consisted of 50 mM HEPES supplemented with 5 mM EGTA, 5 mM MgCl2, 0.005% Tween 20 and pH was adjusted to 7.4. An 8% albumin stock consisted of HSA dissolved at 8% (w/v) in assay buffer. An 0.02% albumin stock consisted of HSA dissolved at 0.02% (w/v) in assay buffer.
The cells express the human GLP-1 receptor.
The cells were grown at 5% CO2 in DMEM, 10% fetal calf serum, 1% Pen/Strep (Penicillin/Streptomycin) and 1.0 mg/ml of the selection marker G418.
To make a membrane preparation the cells were grown to approximately 80% confluence. The cells were washed twice in phosphate-buffered saline and harvested. The cells were pelleted using a brief centrifugation and the cell pellet was kept on ice. The cell pellet was homogenised with ULTRA-THURRAX™ dispersing instrument for 20-30 seconds in a suitable amount of buffer 1 (e.g., 10 ml). The homogenate was centrifuged for 15 minutes. The pellet was re-suspended (homogenised) in 10 ml buffer 2 and centrifuged. This step was repeated once more. The resulting pellet was re-suspended in buffer 2 and the protein concentration was determined. The membranes were aliquoted and stored at minus 80° C.
For the receptor binding assay in the presence of low HSA (0.005%) 50 μl of the assay buffer was added to each well of an assay plate.
For the receptor binding assay in the presence of high HSA (2%) 50 μl of the 8% albumin stock was added to each well of an assay plate.
Cell membrane aliquots were thawed and diluted to their working concentration. Fifty μl were added to each well in the assay plate.
WGA SPA beads were suspended in assay buffer at 20 mg/ml. The suspension was diluted to 10 mg/ml in assay buffer just prior to addition to the assay plate. Fifty μl were added to each well in the assay plate.
The incubation was started by adding 25 μl of 480 pM solution of [^125I]-GLP-1]-(7-36)NH2 to each well of the assay plate. A 25 μl aliquot was reserved for measuring total counts/well.
The assay plate was incubated for 2 h at 30° C.
The assay plate was centrifuged for 10 min.
The assay plate was read in a Packard TopCount NXT instrument.
The data from the TopCount instrument were transferred to GraphPad Prism software. The software averaged the values for the replicates and performed a non-linear regression. IC50 values were calculated by the software and reported in nM.
Setting [4] is: High HSA IC50 (nM), high serum albumin (2.0% HSA final assay concentration).
The mark [5] stands for this setting: Low HSA IC50 (nM), low serum albumin (max. 0.001% final assay concentration).

T1 sequence (P43220 24-463): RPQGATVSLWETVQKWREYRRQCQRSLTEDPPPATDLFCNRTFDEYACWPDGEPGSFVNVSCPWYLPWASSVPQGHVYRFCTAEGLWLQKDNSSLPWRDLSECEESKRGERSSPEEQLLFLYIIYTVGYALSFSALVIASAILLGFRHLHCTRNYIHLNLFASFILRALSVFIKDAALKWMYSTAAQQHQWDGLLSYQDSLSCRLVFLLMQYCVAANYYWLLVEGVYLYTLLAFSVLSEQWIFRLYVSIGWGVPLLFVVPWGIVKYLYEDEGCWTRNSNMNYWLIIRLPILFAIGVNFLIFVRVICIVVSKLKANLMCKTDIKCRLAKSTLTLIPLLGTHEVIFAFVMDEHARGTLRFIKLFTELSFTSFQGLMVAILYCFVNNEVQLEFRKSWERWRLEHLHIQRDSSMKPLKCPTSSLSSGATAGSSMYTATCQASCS

Take `CC[C@H](C)[C@H](NC(=O)[C@H](Cc1ccccc1)NC(=O)[C@H](CCCCNC(=O)[C@@H](N)CCCCNC(=O)[C@@H](N)CCCCNC(=O)CC[C@H](NC(=O)CCCCCCCCCCCCCCCCCCC(=O)O)C(=O)O)NC(=O)[C@H](CCCNC(=N)N)NC(=O)[C@H](C)NC(=O)[C@H](C)NC(=O)[C@H](CCC(N)=O)NC(=O)[C@H](CCC(=O)O)NC(=O)[C@H](CCC(=O)O)NC(=O)[C@H](CC(C)C)NC(=O)[C@H](Cc1ccc(O)cc1)NC(=O)[C@H](CO)NC(=O)[C@H](CO)NC(=O)[C@@H](NC(=O)[C@H](CC(=O)O)NC(=O)[C@H](CO)NC(=O)[C@@H](NC(=O)[C@H](Cc1ccccc1)NC(=O)[C@@H](NC(=O)CNC(=O)[C@H](CCC(=O)O)NC(=O)C(C)(C)NC(=O)[C@@H](N)Cc1c[nH]cn1)[C@@H](C)O)[C@@H](C)O)C(C)C)C(=O)N[C@@H](C)C(=O)N[C@@H](Cc1c[nH]c2ccccc12)C(=O)N[C@@H](CC(C)C)C(=O)N[C@H](C(=O)N[C@@H](CCCNC(=N)N)C(=O)NCC(=O)N[C@@H](CCCNC(=N)N)C(=O)NCC(=O)NCC(=O)NCC(=O)NCC(=O)N[C@@H](CO)C(=O)N[C@@H](CCCCNC(=O)[C@@H](N)CCCCNC(=O)[C@@H](N)CCCCNC(=O)CC[C@H](NC(=O)CCCCCCCCCCCCCCCCCCC(=O)O)C(=O)O)C(=O)O)C(C)C` [Example 8, N{Epsilon-27}-[(2S)-2-amino-6-[[(2S)-2-amino-6-[[(4S)-4-carboxy-4-(19-carboxynonadecanoylamino)butanoyl]amino]hexanoyl]amino]hexanoyl]-[Aib8,Glu22,Arg26,Lys27,Arg34]-GLP-1-(7-37)-peptidyl-Gly-Gly-Gly-Ser-N{Epsilon}[(2S)-2-amino-6-[[(2S)-2-amino-6-[[(4S)-4-carboxy-4-(19-carboxynonadecanoylamino)butanoyl]amino]hexanoyl]amino]hexanoyl]Lys] (H-H[Aib]EGTFTSDVSSYLEEQAARK([εLys-εLys-γGlu-C20 diacid])FIAWLVRGRGGGGSK([εLys-εLys-γGlu-C20 diacid])-OH): the half-life in series [1] is 137 h. The negative logarithm of the EC50 (pEC50) at human GLP-1 receptor [2] was 9.59. Also, the negative logarithm of the IC50 (pIC50) is 6.42 on human GLP-1 receptor [3] (high serum albumin (2.0% HSA final assay concentration), read-out: High HSA IC50) and 9.37 at human GLP-1 receptor [3] (low serum albumin (max. 0.001% final assay concentration), read-out: Low HSA IC50).

Regarding `CC[C@H](C)[C@H](NC(=O)[C@H](Cc1ccccc1)NC(=O)[C@H](CCC(=O)O)NC(=O)[C@H](CCCNC(=N)N)NC(=O)[C@H](C)NC(=O)[C@H](C)NC(=O)[C@H](CCC(N)=O)NC(=O)[C@H](CCC(=O)O)NC(=O)[C@H](CCC(=O)O)NC(=O)[C@H](CC(C)C)NC(=O)[C@H](Cc1ccc(O)cc1)NC(=O)[C@H](CO)NC(=O)[C@H](CO)NC(=O)[C@@H](NC(=O)[C@H](CC(=O)O)NC(=O)[C@H](CO)NC(=O)[C@@H](NC(=O)[C@H](Cc1ccccc1)NC(=O)[C@@H](NC(=O)CNC(=O)[C@H](CCC(=O)O)NC(=O)C(C)(C)NC(=O)[C@@H](N)Cc1c[nH]cn1)[C@@H](C)O)[C@@H](C)O)C(C)C)C(=O)N[C@@H](C)C(=O)N[C@@H](Cc1c[nH]c2ccccc12)C(=O)N[C@@H](CC(C)C)C(=O)N[C@H](C(=O)N[C@@H](CCCNC(=N)N)C(=O)NCC(=O)N[C@@H](CCCNC(=N)N)C(=O)NCC(=O)N[C@@H](CCCCNC(=O)COCCOCCNC(=O)COCCOCCNC(=O)CC[C@H](NC(=O)[C@H]1CC[C@H](CNC(=O)CCCCCCCCCCCCCCCCCCC(=O)O)CC1)C(=O)O)C(=O)NCC(=O)NCC(=O)N[C@@H](CO)C(=O)N[C@@H](CCCCNC(=O)COCCOCCNC(=O)COCCOCCNC(=O)CC[C@H](NC(=O)[C@H]1CC[C@H](CNC(=O)CCCCCCCCCCCCCCCCCCC(=O)O)CC1)C(=O)O)C(=O)O)C(C)C` [Example 3] (H-H[Aib]EGTFTSDVSSYLEEQAAREFIAWLVRGRGK([AEEA-AEEA-γGlu-Trx-C20 diacid])GGSK([AEEA-AEEA-γGlu-Trx-C20 diacid])-OH), the half-life in series [1] was 147 h. The negative logarithm of the EC50 (pEC50) at human GLP-1 receptor [2] was 10.37. For the same compound, the figures for the IC50 on human GLP-1 receptor [3] (setting [4]) and at human GLP-1 receptor [3] (setting [5]) were 185 nM and 1.2 nM, respectively.

For `CC[C@H](C)[C@H](NC(=O)[C@H](Cc1ccccc1)NC(=O)[C@H](CCC(=O)O)NC(=O)[C@H](CCCNC(=N)N)NC(=O)[C@H](C)NC(=O)[C@H](C)NC(=O)[C@H](CCC(N)=O)NC(=O)[C@H](CCC(=O)O)NC(=O)[C@H](CCC(=O)O)NC(=O)[C@H](CC(C)C)NC(=O)[C@H](Cc1ccc(O)cc1)NC(=O)[C@H](CO)NC(=O)[C@H](CO)NC(=O)[C@@H](NC(=O)[C@H](CC(=O)O)NC(=O)[C@H](CO)NC(=O)[C@@H](NC(=O)[C@H](Cc1ccccc1)NC(=O)[C@@H](NC(=O)CNC(=O)[C@H](CCC(=O)O)NC(=O)C(C)(C)NC(=O)[C@@H](N)Cc1c[nH]cn1)[C@@H](C)O)[C@@H](C)O)C(C)C)C(=O)N[C@@H](C)C(=O)N[C@@H](CCCCNC(=O)COCCOCCNC(=O)COCCOCCNC(=O)CC[C@H](NC(=O)[C@H]1CC[C@H](CNC(=O)CCCCCCCCCCCCCCCCCCC(=O)O)CC1)C(=O)O)C(=O)N[C@@H](CC(C)C)C(=O)N[C@H](C(=O)N[C@@H](CCCNC(=N)N)C(=O)NCC(=O)N[C@@H](CCCNC(=N)N)C(=O)NCC(=O)NCC(=O)NCC(=O)NCC(=O)N[C@@H](CO)C(=O)N[C@@H](CCCCNC(=O)COCCOCCNC(=O)COCCOCCNC(=O)CC[C@H](NC(=O)[C@H]1CC[C@H](CNC(=O)CCCCCCCCCCCCCCCCCCC(=O)O)CC1)C(=O)O)C(=O)O)C(C)C` [Example 2] (H-H[Aib]EGTFTSDVSSYLEEQAAREFIAK([AEEA-AEEA-γGlu-Trx-C20 diacid])LVRGRGGGGSK([AEEA-AEEA-γGlu-Trx-C20 diacid])-OH), the half-life in series [1] is 110 h. This compound also gave a pEC50 at human GLP-1 receptor [2] of 10.44. Further, the results for the IC50 at human GLP-1 receptor [3] (setting [4]) and on human GLP-1 receptor [3] (setting [5]) were at least 1000 nM and 1.4 nM, respectively.

Take `CC[C@H](C)[C@H](NC(=O)[C@H](Cc1ccccc1)NC(=O)[C@H](CCC(=O)O)NC(=O)[C@H](CCCNC(=N)N)NC(=O)[C@H](C)NC(=O)[C@H](C)NC(=O)[C@H](CCC(N)=O)NC(=O)[C@H](CCC(=O)O)NC(=O)[C@H](CCC(=O)O)NC(=O)[C@H](CC(C)C)NC(=O)[C@H](Cc1ccc(O)cc1)NC(=O)[C@H](CO)NC(=O)[C@H](CO)NC(=O)[C@@H](NC(=O)[C@H](CC(=O)O)NC(=O)[C@H](CO)NC(=O)[C@@H](NC(=O)[C@H](Cc1ccccc1)NC(=O)[C@@H](NC(=O)CNC(=O)[C@H](CCC(=O)O)NC(=O)C(C)(C)NC(=O)[C@@H](N)Cc1c[nH]cn1)[C@@H](C)O)[C@@H](C)O)C(C)C)C(=O)N[C@@H](C)C(=O)N[C@@H](Cc1c[nH]c2ccccc12)C(=O)N[C@@H](CC(C)C)C(=O)N[C@H](C(=O)N[C@@H](CCCNC(=N)N)C(=O)NCC(=O)N[C@@H](CCCNC(=N)N)C(=O)NCC(=O)N[C@@H](CCCCNC(=O)COCCOCCNC(=O)COCCOCCNC(=O)CC[C@H](NC(=O)[C@H]1CC[C@H](CNC(=O)CCCCCCCCCCCCCCCCCCCCC(=O)O)CC1)C(=O)O)C(=O)NCC(=O)NCC(=O)N[C@@H](CO)C(=O)N[C@@H](CCCCNC(=O)COCCOCCNC(=O)COCCOCCNC(=O)CC[C@H](NC(=O)[C@H]1CC[C@H](CNC(=O)CCCCCCCCCCCCCCCCCCCCC(=O)O)CC1)C(=O)O)C(=O)O)C(C)C` [Example 9] (H-H[Aib]EGTFTSDVSSYLEEQAAREFIAWLVRGRGK([AEEA-AEEA-γGlu-Trx-C22 diacid])GGSK([AEEA-AEEA-γGlu-Trx-C22 diacid])-OH): the half-life in series [1] is 167 h. This compound showed a negative logarithm of the EC50 (pEC50) at human GLP-1 receptor [2] of 10.00. Also, the values for the IC50 on human GLP-1 receptor [3] (setting [4]) and on human GLP-1 receptor [3] (setting [5]) were 21 nM and 1.6 nM, respectively.
